Results on 5 compounds are retold here after article PMC11261779, “Structural studies of WDR5 in complex with MBD3C WIN motif reveal a unique binding mode” (The Journal of Biological Chemistry, 2024).

One assay addresses T1, WDR5^D107R (Mus musculus, UniProt P61965, D107R).
T1 construct: the mouse WDR5 seven tandem WD-40 repeats (residues 24–334); GST (N, cleaved yes); made in house; host or cells: Escherichia coli BL21 (DE3)
As to the kind of experiment: ITC of MBD3C peptide titrated into WDR5 D107R mutant. The conditions noted are these: 20 °C, 200 mM NaCl, pH 7.5, WDR5 D107R, N.D. = not detectable binding. The source says:
To validate the importance of the aforementioned residues in the interactions between MBD3C and WDR5, we conducted mutations on Arg43, Arg45, and Phe47 residues within MBD3C and the corresponding residues within WDR5. […] In addition, MBD3C carrying R43K mutation weakens the interaction with WDR5 by ∼9.1-fold (Figs. 2D, S2, and Table 2). […] The Arg-Asp specific interaction was also observed in a previously determined WDR5-KANSL1 complex, thereby contributing to the high binding affinity of KANSL1 for WDR5 ([9]). […] In comparison to the wild-type MBD3C, the dissociation constants were approximately 4-fold and 6.8-fold higher when Phe47 was mutated to alanine and histidine (Figs. 2D, S2, and Table 2), respectively.
The DNA fragment encoding the mouse WDR5 seven tandem WD-40 repeats (residues 24–334) was amplified via PCR from the human brain and bone marrow cDNA library and cloned into the pGEX-4T1 vector modified with an N-terminal GST tag and a TEV cleavage site (ENLYFQ/GSHM) (where ‘/’ indicates the cleavage site). All WDR5 mutants were generated using a MutanBEST kit and subsequently confirmed through DNA sequencing. […]
(§1) ITC assays were performed on a Microcal PEAQ-ITC instrument (Malvern Panalytical) at 20 °C. Proteins were quantified by absorbance at 280 nm and diluted to 44.5 μM with Buffer D. The peptides were adjusted to 0.5 to 1.0 mM with the same buffer. […]

The target in assay [1] is T2, WDR5 (Mus musculus, UniProt P61965).
T2 construct: to titrate the truncated WDR5 construct (residues 24–334); GST (N, cleaved yes); made in house; host or cells: Escherichia coli BL21 (DE3)
As to the kind of experiment: ITC of MBD3C peptides titrated into wild-type WDR5 (residues 24–334). The following applies: MicroCal PEAQ-ITC, 20 °C, 20 mM Tris-HCl, 200 mM NaCl, pH 7.5, WDR5 WT 44.5 μM, peptide 0.5–1.0 mM, single binding site model, triplicate, N.D. = not detectable binding.
Source text: To validate their findings and determine the dissociation constant (Kd) between WDR5 and MBD3C40-51 more accurately, we performed ITC experiments using a synthetic MBD3C peptide spanning 40 to 51 to titrate the truncated WDR5 construct (residues 24–334).
The DNA fragment encoding the mouse WDR5 seven tandem WD-40 repeats (residues 24–334) was amplified via PCR from the human brain and bone marrow cDNA library and cloned into the pGEX-4T1 vector modified with an N-terminal GST tag and a TEV cleavage site (ENLYFQ/GSHM) (where ‘/’ indicates the cleavage site). All WDR5 mutants were generated using a MutanBEST kit and subsequently confirmed through DNA sequencing. The proteins were expressed in Escherichia coli BL21 (DE3) cells (Novagen) that were cultured in Luria–Bertani medium at 37 °C. The recombinant proteins were induced by 0.2 mM isopropyl β-D-1-thiogalactopyranoside (IPTG) upon reaching an optical density at 600 nm (OD600 nm) 0.8, then transferred to 16 °C and incubated for 18 h. Cells were harvested by centrifugation and resuspended in Buffer A (20 mM Tris-HCl, 500 mM NaCl, pH 8.0), supplemented with DNAaseI (10U) and protein protease inhibitor (Roche, 1 tablet dissolved in 1 ml sterile water), and then lysed by a high-pressure cell homogenizer. The cell debris was removed by centrifugation, and the supernatant was subjected to a 6-h incubation at 4 °C with glutathione Sepharose resins (GE Healthcare) The resins bound by GST-tagged proteins were resuspended in 20 ml Buffer A. Then, the GST tag was removed through digestion with ∼1 mg TEV protease (purified in-house) at 4 °C overnight. […]
as §1

Assay [2] concerns WDR5. The conditions noted are these: cited from earlier work. The source says: (§2) WDR5, a well-established core scaffolding protein found in histone methyltransferase complexes MLL1-4 and SET1A/B ([1], [2]), was initially characterized as an epigenetic histone “writer” to recognize histone H3 lysine 4 (H3K4) and is essential for H3K4 di- and tri-methylation (H3K4me2 and H3K4me3) to activate gene transcription ([1], [3], [4], [5], [6]). Moreover, the interaction between WDR5 and the H3 tail could be regulated by the methylation of H3 arginine 2 (H3R2) ([7], [8]). It is also present in the nonspecific lethal (NSL) complex of histone acetyltransferase, where it is responsible ...

In assay [3] the test system is patient-derived mouse models. The following applies: cited from earlier work.
Source text: as §2

No end group written: not given here.

With GAARCRVFSPQG [MBD3C], at WDR5^D107R, the Kd entry is “No interaction was observed”.
On to “GAAACRVFSPQG [MBD3C^R43A, MBD3C 40–51 peptide with R43A mutation]”, for which the Kd result on WDR5 [1] is reported as “no binding was observed”.
On the same count and under the same terms, next, “GAADCRVFSPQG [MBD3C^R43D, MBD3C 40–51 peptide with R43D mutation]”: “no binding was observed”.
With `Cc1ncsc1-c1ccc([C@H](C)NC(=O)[C@@H]2C[C@@H](O)CN2C(=O)[C@@H](NC(=O)CNC(=O)c2ccc(F)c(-c3ccc(N4C[C@@H](C)N(C)[C@@H](C)C4)c(NC(=O)c4c[nH]c(=O)cc4C(F)(F)F)c3)c2)C(C)(C)C)cc1` [MS67], the “reduction of WDR5 levels in cells” value in the assay on WDR5 [2] is recorded as “effectively reduced WDR5 levels”. Moreover, in assay [3], the tumor growth result is recorded as “suppressed tumor growth”.
In the case of “GAAECRVFSPQG [MBD3C^R43E, MBD3C 40–51 peptide with R43E mutation]”, at WDR5 [1], the Kd result is given as “no binding was observed”.
